In this test the test system is CHO cell. As to the kind of experiment: CHO cell fed-batch culture (ambr15) with high L-cysteine feed: antibody yield (Example 6). In kind it is cell-based, Chinese hamster. The settings on record: CHO cells, 11 mM, 18 mM and 23-24 mM equivalent L-cysteine feed sections. The method, then:
Basal media were prepared by adding a final concentration of 4 mM L-Glutamine (Thermo Fisher Scientific: 25030081) to media that were designed on the basis of CELLIST™ Basal media (AJINOMOTO CO., INC.: BASAL10).
Feed Media A were prepared on the basis of the commercially available CELLIST™ Feed media (AJINOMOTO CO., INC.: FEED 2). Feed media A containing a final concentration of 11 or 18 mM L-cysteine and 60 g/L glucose were prepared to have a pH of 6.7-6.9 according to the procedures described in the product instructions for FEED 2.
A 110 mM L-cysteine solution (pH 11.3) was prepared.
Using the prepared basal media, CHO suspensions adjusted to 7×10^5 celllls/mL were cultured for 14 days using the ambr15 cell culture system (Sartorius AG). All of the experimental groups were performed with n=2. […] The antibody yields on day 14 in these conditioned sections were measured using Cedex Bio HT (Roche Diagnostics K.K.)

Each structure is given as a SMILES string.

With `N[C@@H](CS)C(=O)O` [L-cysteine], the “Antibody yield on day 14” value was “improves the antibody yield”.

These data come from patent US20250327034A1, “CELL CULTURE MEDIUM” (Ajinomoto Co., Inc., priority 2022, published 2025).
